# According to patent US20240091310A1, “COMPOSITIONS AND METHODS USEFUL FOR THE PREVENTION AND/OR TREATMENT OF DISEASE IN MAMMALS” (VIRO-GEN (PTY) LTD, priority 2020, published 2024):
# Legend:
# [1] = Transdermal absorption of liquid DMF; type: in vivo, human; details: two patches of diameter 9 cm, total skin surface area 127 cm^2
# Experimental: For transdermal administration of a polar compound, the rate of absorption is determined by the skin of the subject.
# Accordingly, the desired rate of absorption may be achieved by controlling the surface area of the skin exposed to the drug, as by determining the area of each patch and the number of patches applied to the skin.
# [2] = system: HIV-1; details: transdermal patch containing DMF; cited from earlier work
# [3] = system: HIV-1; assay: Follow-up HIV PCR and CD4 count after transdermal DMF study; type: in vivo, human
# Source text: Individuals, the study of whom generated the teachings of ZA 1998/064649, despite being infected with HIV have maintained a CD4^+ T-cell count above 350 for more than 20 years without being on antiretroviral treatment. These individuals are referred to herein as Long-term Non-Progressors (“LTNP”).
# One such individual, had initially presented with HIV PCR detecting 63.298 HIV-1 RNA copies/ml of plasma in December 1996.
# [4] = system: HIV; details: as previously disclosed; cited from earlier work
Structure (SMILES),absorption rate [1],outcome of treatment of patients infected with HIV-1 [2],"HIV-1 RNA copies/ml of plasma by HIV PCR ([3]; one LTNP individual, follow-up March 2006 after transdermal DMF study, initially 63.298 copies/ml in December 1996) [copies/ml]","CD4 Count ([3]; same individual, follow-up 2011) [µL⁻¹]","HIV-1 RNA copies/ml of plasma by HIV PCR ([3]; same individual, further follow-up 2011)",inhibition of HIV production [4]
"CN(C)C=O [DMF, N,N-dimethylformamide]",about 1.2 g of DMF per hour,promising results,< 40,920,No,powerful inhibitors of HIV production
"C[S+](C)[O-] [DMSO, Diemthylsulfoxide]",–,–,–,–,–,powerful inhibitors of HIV production
